# Measurements taken from publication PMC12664080, “Tetrazole-containing naphthalene bis-sulfonamide Keap1-Nrf2 interaction inhibitors with unexpected binding modes” (Redox Biology, 2025).
# Legend:
# [1] = 1D 1H NMR lineshape analysis of cis/trans rotamer exchange; conditions: DMSO; for kA→B / ΔH^‡AB / ΔHAB: lineshape; for ΔH^‡AB: Eyring; for ΔHAB: van't Hoff
# Experimental: Exchange was quantified using a two-site exchange model [40] implemented in Julia, where resonances were fitted to calculate chemical shifts of the two states and the exchange rates kAB and kBA between them. […] Reported uncertainties were determined from the standard errors of the fits.
# Exchange rates kAB and kBA were used to determine the relative populations pA=kBA/kAB+kBA and pB=kAB/kAB+kBA and were fitted to van't Hoff and Eyring equations (with unit transmission coefficient) to estimate the enthalpy and entropy changes and enthalpy and entropy of activation.
# [2] = tested on: Nrf2; assay: Nrf2 luciferase reporter assay (MCF7 ARE-luciferase reporter cell line); assay type: cell-based; conditions: Homo sapiens; 100 μM (highest test concentration), MCF7 cells; read-out: peak fold induction of luciferase activity
# Experimental: The induction of luciferase activity in the stably transfected MCF7 ARE-luciferase reporter cell line was measured using an adaptation of a published procedure. […] The cells were treated with compound or vehicle control (1 % final DMSO concentration) and incubated for a further 24 h. The culture medium was aspirated and the cells were washed with 100 μL per well PBS. The cells were lysed using 75 μL per well lysis buffer (0.2 % Triton X-100 in 25 mM Tris pH 7.5) under gentle agitation at rt for 30 min. The samples were transferred to 500 μL Eppendorf tubes and centrifuged at 10000 g for 5 min at 4 °C. 50 μL of supernatant from each sample were transferred to a new 96 well plate. 50 uL of working reagent (100 mM Tris pH 8.0, 5 mM MgCl2, 100 μM coenzyme A, 80 μM luciferin, and 5 mM ATP) were added to each well and the luciferase activity was measured.
# [3] = tested on: NQO1; assay: NQO1 induction assay in Hepa1c1c7 cells; assay type: cell-based, mouse; conditions: Mus musculus, Hepa-1c1c7, 10 μM
# Experimental: The method using Hepa1c1c7 cells has been described previously. Briefly, cells were seeded into 96-well plates (2 × 10^4 cells/200 μL per well) then incubated overnight at 37 °C. The cells were treated with compound (10 μM final concentration) or vehicle (final DMSO concentration 0.1 % DMSO) and incubated for a further 24 h or 48 h. The culture medium was aspirated and the cells treated with lysis buffer (50 μL per well, 0.1 % Tween 20 in 2 mM EDTA (pH 7.5)) then agitated for 15 min. Enzyme reaction mixture was added to each well (200 μL of 25 mM Tris buffer (pH 7.5) containing BSA (0.067 %), Tween20 (0.01 %), FAD (5 μM), G6P (1 mM), NADP (30 μM), G6P dehydrogenase (40 units), MTT (0.03 %), menadione (50 μM)) for 5 min then stop solution was applied (40 μL of 10 % SDS, final concentration 1.5 % SDS). Following brief agitation of the plate, the absorbance at 595 nm was measured. The background optical density was measured from wells containing tissue culture medium, lysis buffer, enzyme and stop solutions in the absence of Hepa1c1c7 cells. The change in background-corrected NQO1 activity (change in optical density) relative to the control was determined for each compound.
# [4] = target: T1, Keap1 Kelch domain (Homo sapiens, UniProt Q14145); assay: Differential scanning fluorimetry (DSF) thermal shift assay; assay type: binding; conditions: 10 μM compound; Keap1 vehicle control Ti = 61.3 ± 0.3 °C
# T1 construct: made in house
# Experimental: The DSF assays were carried out according to the previously described method. Solutions of the Keap1 Kelch domain protein (5 μM final concentration) and the small molecule inhibitor (10 μM final concentration) were prepared in DPBS at pH 7.4 (10 % final DMSO concentration, 20 μL final volume) in an Eppendorf tube. The solution was centrifuged briefly (1500 rpm, 60 s) to remove any particulates and mix the samples, followed by a 30 min incubation at RT. The samples were loaded into Tycho NT.6 capillaries (Nanotemper) in triplicate and positioned in the […] instrument. […] The fluorescence ratio vs temperature was plotted and the inflection temperature (Ti) of the profile was recorded. Changes in inflection (ΔTi) for the inhibitors were calculated by subtracting the mean Ti of the Keap1 sample plus vehicle from the mean Keap1 plus binder value (n = 3).
# [5] = target: T1, Keap1 Kelch domain; assay: Fluorescence polarisation (FP) competition assay; assay type: binding; conditions: for inhibition at 10 µM: read-out: FP percentage inhibition at 10 μM concentration of inhibitor; for IC50: 200 nM Keap1 Kelch domain, 1 nM FITC-β-DEETGEF-OH
# Experimental: The FP assays were carried out according to previously described methods [[23],[31], [32], [33], [34]]. […] Following incubation under slow agitation (30 min at rt in the absence of light), the plates were transferred to a PHERAstar microplate reader and the FP was recorded. All measurements were recorded in triplicate. The data were normalised to the control and then fitted to a standard four-parameter logistic function using the Origin Pro software.
# [6] = target: T1, Keap1 Kelch domain; assay: Isothermal titration calorimetry (ITC); assay type: binding; conditions: 25 °C; read-out: ITC Kd
# Experimental: The measurements were performed as described previously. The small molecule inhibitor at 500 μM was titrated over 30 injections against 50 μM protein in buffer containing 25 mM HEPES (pH 7.4), 200 mM NaCl and 5 % DMSO. ITC experiments were performed using a MicroCal PEAQ-ITC instrument (Malvern Instruments, UK) at 25 °C with a stirring speed of 750 rpm. The first injection volume was of 0.3 μL followed by 29 injections of 1.3 μL and a gap of 120 s between each injection. Data analyses were performed as previously described. Each small molecule ITC measurement was performed in duplicate and resultant values obtained were averaged after independent analysis.
# [7] = target: Keap1 (Homo sapiens, UniProt Q14145); assay: Microscale thermophoresis (MST); conditions: 10 nM Keap1
# Keap1, sequence (Q14145 322-609): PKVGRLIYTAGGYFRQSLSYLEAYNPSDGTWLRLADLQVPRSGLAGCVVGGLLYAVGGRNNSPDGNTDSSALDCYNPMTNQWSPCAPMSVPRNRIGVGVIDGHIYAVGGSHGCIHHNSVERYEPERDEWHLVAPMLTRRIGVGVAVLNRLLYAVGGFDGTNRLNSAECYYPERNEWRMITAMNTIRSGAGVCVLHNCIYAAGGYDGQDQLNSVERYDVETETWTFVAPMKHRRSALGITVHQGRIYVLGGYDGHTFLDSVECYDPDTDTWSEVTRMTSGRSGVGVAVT
# Experimental: Keap1 was labelled using the Protein Labelling Kit RED-NHS 2nd Generation (NanoTemper, München, Germany). Keap1 was diluted to 2 μM in RED-NHS Labelling Buffer. 10 μg of RED-NHS 2nd Generation labelling dye was freshly dissolved in 25 μL of DMSO to yield a concentration of 600 μM, then further diluted in RED-NHS Labelling Buffer to 300 μM. A volume of 20 μL of the 300 μM labelling dye was thoroughly mixed with 180 μL of 2 μM Keap1 and incubated at rt in a dark environment for 3 h. […] The sample was transferred to the centre of the resin bed in the B-column. 550 μL of Keap1 MST buffer was pipetted into the B-column and allowed to enter completely, followed by elution of the sample with 450 μL of Keap1 MST buffer and the flow-through was collected into a 1.5 mL Eppendorf tube. The collected sample was centrifuged at 15,000×g for 10 min at 4 °C to remove aggregates. Protein concentration in the collected sample was determined using the NanoDrop spectrophotometer. The sample was then tested in MST pre-test to evaluate the labelling quality.
# Labelled Keap1 was diluted to 20 nM in Keap1 MST buffer prior to the reaction setup. […] An equal volume of 20 nM Keap1 was thoroughly mixed with each diluted sample and incubated for 30 min at rt. […] An equal volume of 2 nM Keap1 was mixed with each diluted sample and incubated at rt for 30 min. Incubated samples were loaded into Monolith NT.115 standard capillaries and measured using the Monolith NT.115^Pico instrument in triplicate. Parameters and measurements were set and controlled by the MO.Control software and collected datasets were analysed using the MO.Affinity Analysis software.
# T1 sequence (Q14145 322-609): as above
smiles,measurement,setting,value
"COc1ccc(S(=O)(=O)N(CC(=O)O)c2ccc(N(CC(=O)O)S(=O)(=O)c3ccc(OC)cc3)c3ccccc23)cc1 [Compound 2, 2,2'-(Naphthalene-1,4-diylbis(((4-methoxyphenyl)sulfonyl)azanediyl))diacetic acid, reference compound]",Occupancy of the more shielded state (A),[1]; 300 K,0.426 ±0.001
same,kA→B,[1]; 300 K,3.175 ± 0.005 s⁻¹
same,Occupancy of the more shielded state (A),[1]; 310 K,0.436 ±0.001
same,kA→B,[1]; 310 K,8.456 ± 0.024 s⁻¹
same,Occupancy of the more shielded state (A),[1]; 320 K,0.443 ±0.001
same,kA→B,[1]; 320 K,18.949 ± 0.04 s⁻¹
same,ΔH^‡AB,[1],15.8 ± 0.598 kcal/mol
same,ΔHAB,[1],-0.636 ± 0.0598 kcal/mol
same,fold induction at 100 µM,[2],10.9
same,fold induction at 10 µM,[3],2.34 ± 0.35
"COc1ccc(S(=O)(=O)N(CC(N)=O)c2ccc(N(CC(N)=O)S(=O)(=O)c3ccc(OC)cc3)c3ccccc23)cc1 [Compound 4, 2,2'-(Naphthalene-1,4-diylbis(((4-methoxyphenyl)sulfonyl)azanediyl))diacetamide]",DSF ΔTi,[4],7.6 ± 0.1 °C
"CCOC(=O)CN(c1ccc(N(CC(=O)OCC)S(=O)(=O)c2ccc(OC)cc2)c2ccccc12)S(=O)(=O)c1ccc(OC)cc1 [Compound 11, Diethyl 2,2'-(naphthalene-1,4-diylbis(((4-methoxyphenyl)sulfonyl)azanediyl))diacetate]",inhibition at 10 µM,[5],0%
"COc1ccc(S(=O)(=O)N(CC#N)c2ccc(N(CC#N)S(=O)(=O)c3ccc(OC)cc3)c3ccccc23)cc1 [Compound 12, N,N'-(Naphthalene-1,4-diyl)bis(N-(cyanomethyl)-4-methoxybenzenesulfonamide)]",inhibition at 10 µM,[5],0%
same,fold induction at 10 µM,[3],0.89 ± 0.24
"COc1ccc(S(=O)(=O)N(Cc2nnn[nH]2)c2ccc(N(Cc3nnn[nH]3)S(=O)(=O)c3ccc(OC)cc3)c3ccccc23)cc1 [Compound 13, N,N'-(Naphthalene-1,4-diyl)bis(N-((1H-tetrazol-5-yl)methyl)-4-methoxybenzenesulfonamide)]",IC50,[5],76 ± 3 nM
same,DSF ΔTi,[4],20.4 ± 0.1 °C
same,Occupancy of the more shielded state (A),[1]; 300 K,0.542 ±0.003
same,kA→B,[1]; 300 K,1.063 ± 0.008 s⁻¹
same,Occupancy of the more shielded state (A),[1]; 310 K,0.548 ±0.001
same,kA→B,[1]; 310 K,1.459 ± 0.006 s⁻¹
same,Occupancy of the more shielded state (A),[1]; 320 K,0.552 ±0.001
same,kA→B,[1]; 320 K,2.927 ± 0.010 s⁻¹
same,ΔH^‡AB,[1],10.4 ± 2.29 kcal/mol
same,ΔHAB,[1],-0.394 ± 0.0406 kcal/mol
same,fold induction at 10 µM,[3],1.94 ± 0.22
same,Kd,[6],75.6 ± 33.9 nM
same,Kd,[7],17.1 ± 2.6 nM
"COc1ccc(S(=O)(=O)N(Cc2nnc(C)o2)c2ccc(N(Cc3nnc(C)o3)S(=O)(=O)c3ccc(OC)cc3)c3ccccc23)cc1 [Compound 17, N,N'-(Naphthalene-1,4-diyl)bis(4-methoxy-N-((5-methyl-1,3,4-oxadiazol-2-yl)methyl)benzenesulfonamide)]",binding activity in FP assay,[5],not tolerated
same,inhibition at 10 µM,[5],0%
same,DSF ΔTi,[4],0.6 ± 0.1 °C
same,fold induction at 10 µM,[3],1.25 ± 0.18
"CCOC(=O)CN(c1ccc(N(CC(=O)O)S(=O)(=O)c2ccc(OC)cc2)c2ccccc12)S(=O)(=O)c1ccc(OC)cc1 [Compound 22, 2-(N-(4-(N-(2-Ethoxy-2-oxoethyl)-4-methoxyphenylsulfonamido)naphthalen-1-yl)-4-methoxyphenylsulfonamido)acetic acid]",binding activity in FP assay,[5],inactive
same,inhibition at 10 µM,[5],0%
same,fold induction at 10 µM,[3],0.77 ± 0.18
"COc1ccc(S(=O)(=O)N(CC(N)=O)c2ccc(N(CC(=O)O)S(=O)(=O)c3ccc(OC)cc3)c3ccccc23)cc1 [Compound 23, 2-(N-(4-(N-(2-Amino-2-oxoethyl)-4-methoxyphenylsulfonamido)naphthalen-1-yl)-4-methoxyphenylsulfonamido)acetic acid]",IC50,[5],143 ± 18 nM
same,DSF ΔTi,[4],10.0 ± 0.2 °C
same,fold induction at 10 µM,[3],1.9 ± 0.05
